Structures can show the parent of a compound that is named as a salt. Where two headings read alike, the source gives them in different places.
Columns and labels:
[1] = tested on: aromatization (estrogen synthesis); assay: Estrogen synthesis inhibition in rats (uterine weight and ovarian steroid levels); type: in vivo, rat (immature female Wistar); details: 7 days; for Mean Uterine Weight: testosterone propionate-treated rats; for Mean Steroid Concentration, estrone / Mean Steroid Concentration, estriol / Mean Steroid Concentration, estradiol: ovaries; for Mean Steroid Concentration, estrone: testosterone-treated control 0.19; for Mean Steroid Concentration, estriol: testosterone-treated control 0.53; for Mean Steroid Concentration, estradiol: testosterone-treated control 0.55
aromatase = target: T1, aromatase (Rattus norvegicus, UniProt P22443); assay: biochemical
T1 sequence (P22443 1-508): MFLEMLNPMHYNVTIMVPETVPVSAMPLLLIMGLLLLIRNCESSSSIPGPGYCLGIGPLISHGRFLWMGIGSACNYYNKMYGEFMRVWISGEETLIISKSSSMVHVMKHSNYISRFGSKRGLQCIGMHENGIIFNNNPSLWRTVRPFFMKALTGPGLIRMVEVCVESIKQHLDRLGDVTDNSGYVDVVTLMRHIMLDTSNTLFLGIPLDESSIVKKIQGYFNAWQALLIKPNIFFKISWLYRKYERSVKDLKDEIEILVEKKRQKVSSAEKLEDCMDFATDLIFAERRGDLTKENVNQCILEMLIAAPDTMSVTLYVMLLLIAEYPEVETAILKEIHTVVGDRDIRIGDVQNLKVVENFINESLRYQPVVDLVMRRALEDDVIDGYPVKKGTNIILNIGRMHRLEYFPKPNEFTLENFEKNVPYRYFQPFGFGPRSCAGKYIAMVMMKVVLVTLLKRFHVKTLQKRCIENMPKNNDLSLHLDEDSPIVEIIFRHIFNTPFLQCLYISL
Procedure: In this test system, ovarian microsomes are obtained from rats treated with pregnant mares serum gonadotropin. Test compounds are added to reaction vials containing 0.1 μM 4-androstene-3,17-dione, 100,000 dpm 1,2[^3 H]-androstenedione, the microsomes and a NADPH generating system. The concentrations of the inhibitors tested ranged between 0.005 and 10 μM.

breast cancer = details: known aromatase inhibitors; Cancer Research, Vol. 42, Suppl. 8:3261s (1982); cited from earlier work
[2] = 30 ppm in feed (approx. 3 mg/kg/day)
[3] = 300 ppm in feed (approx. 30 mg/kg/day)
[4] = rat ovarian microsomes, substrate (androstenedione) concentration 0.1 μM

## Clc1cc2c(cc1Cl)C(n1ccnc1)CC2.O=[N+]([O-])O (stereo not drawn)
[1]; 30 ppm in feed (approx. 3 mg/kg/day), 4 animals, testosterone-treated control 140.8
  Mean Uterine Weight: 152.5 mg
[1]; 300 ppm in feed (approx. 30 mg/kg/day), 5 animals, significantly different from testosterone-treated control (140.8), p < 0.05
  Mean Uterine Weight: 103.2 mg
[1]; [2]
  Mean Steroid Concentration, estrone: 0.21 femtomoles per milligram of protein
  Mean Steroid Concentration, estriol: 0.46 femtomoles per milligram of protein
  Mean Steroid Concentration, estradiol: 0.71 femtomoles per milligram of protein
[1]; [3]
  Mean Steroid Concentration, estrone: 0.17 femtomoles per milligram of protein
  Mean Steroid Concentration, estriol: 0.49 femtomoles per milligram of protein
  Mean Steroid Concentration, estradiol: 0.35 femtomoles per milligram of protein

## c1ccc2c(c1)OCCC2n1ccnc1 (stereo not drawn) [1-(3,4-dihydro-2H-1-benzopyran-4-yl)-1H-imidazole hydrochloride]
aromatase; [4]
  EC50: 2800 nM

## Clc1cccc2c1CCC2n1ccnc1 (stereo not drawn) [1-(4-chloro-2,3-dihydro-1H--inden-1-yl)-1H--imidazole nitrate]
aromatase; [4]
  EC50: 680 nM

## Clc1ccc2c(c1)C(n1ccnc1)CCC2 (stereo not drawn) [1-(7-chloro-1,2,3,4-tetrahydro-1-naphthalenyl)-1H--imidazole nitrate]
aromatase; [4]
  EC50: 100 nM

## CCC1(c2ccc(N)cc2)CCC(=O)NC1=O (stereo not drawn) [aminoglutethimide]
Breast cancer
  effect in treatment of breast cancer: beneficial effect in treatment of breast cancer

## COc1ccc(OC)c2c1CCC2n1ccnc1 (stereo not drawn) [nitrate]
aromatase
  EC50: 870 nM

## COc1ccc2c(c1)C(n1ccnc1)CCC2 (stereo not drawn) [nitrate]
aromatase
  EC50: 450 nM

## COc1cccc2c1CCCC2n1ccnc1 (stereo not drawn) [nitrate]
aromatase
  EC50: 250 nM

## Clc1cc(Cl)c2c(c1)C(n1ccnc1)CC2 (stereo not drawn) [nitrate]
aromatase
  EC50: 115 nM

## Clc1cc2c(cc1Cl)C(n1ccnc1)CC2.O=[N+]([O-])O (stereo not drawn) [nitrate]
aromatase
  EC50: 78 nM

## c1ccc2c(c1)CCC2n1ccnc1 (stereo not drawn) [nitrate]
aromatase
  EC50: 810 nM

## c1ccc2c(c1)CCCC2n1ccnc1 (stereo not drawn) [nitrate]
aromatase
  EC50: 520 nM

## c1ccc2c(c1)SCCC2n1ccnc1 (stereo not drawn) [nitrate]
aromatase
  EC50: 1020 nM

## C[C@]12C=CC(=O)C=C1CC[C@@H]1[C@@H]2CC[C@]2(C)OC(=O)CC[C@@H]12 [testolactone]
Breast cancer
  effect in treatment of breast cancer: beneficial effect in treatment of breast cancer
